Experiment [1] concerns phenyl-para-quinone induced writhing. Description: phenyl-para-quinone writhing assay in mice (analgesia). It counts as in vivo. The settings on record: for ED50: Mus musculus, read-out: Analgesic Activity ED50 (dose at which 50% of the phenyl-para-quinone induced writhing is inhibited).
For experiment [2], the system named is apomorphine-induced climbing. Description: climbing mice assay (block of apomorphine-induced climbing), antipsychotic activity. The experiment is classed as in vivo, mice (CK-1 male). The settings on record: Mus musculus, ip; for ED50: read-out: Antipsychotic Activity ED50 value (estimated dose for 50% decrease in climbing scores).
In experiment [3] the test system is spontaneous hypertensive rat. Description: antihypertensive activity in the spontaneous hypertensive rat, indirect tail cuff method. The settings on record: 50 mg/kg of body wt, oral, 3 days, measured on third day. It counts as in vivo. On the procedure: According to this procedure, the test compound is administered orally to a group of 5 rats for 3 days in relation to a control group of the same number. The decrease in blood pressure is measured on the third day of administration.

[4] abbreviates: mice, 10 mg/kg of body wt, intraperitoneal, 30 minutes prior to apomorphine 1.5 mg/kg s.c., read-out: Antipsychotic Activity (% decrease in climbing score).
The mark [5] stands for this setting: mice, at 20 mg/kg, subcutaneous.
Where [6] appears, read: mice, intraperitoneal, 30 minutes prior to apomorphine 1.5 mg/kg s.c., linear regression.

Structures can show the parent of a compound that is named as a salt. Where two headings read alike, the source gives them in different places.

Consider `Fc1ccc2c(CCCN3CCCCCC3)noc2c1.O=C(O)C(=O)O` [1-[3-(6-Fluoro-1,2-benzisoxazol-3-yl)propyl]-2,3,4,5,6,7-hexahydroazepine oxalate], for which the ED50 in experiment [1] (sc, mice, subcutaneous) was 1.3 mg/kg. For the same compound, the inhibition in vivo at 10 mg/kg in experiment [2] (setting [4]) was determined as 27%.

As for `CC(O)C1(c2ccccc2)CCN(CCCc2noc3cc(F)ccc23)CC1` (centres unmarked) [1-[3-(6-Fluoro-1,2-benzisoxazol-3-yl)propyl]-4-(1-hydroxyethyl)-4-phenylpiperidine hydrochloride], in experiment [2] (read-out: Antipsychotic Activity (% decrease in climbing score)), the inhibition in vivo at 10 mg/kg was determined as 41%.

On to `Cl.Fc1ccc2c(CCCN3CCC(Oc4ccc(Cl)c(Cl)c4)CC3)noc2c1` [1-[3-(6-Fluoro-1,2-benzisoxazol-3-yl)propyl]-4-(3,4-dichlorophenoxy)piperidine hydrochloride], for which the “percent decrease in writhing at a given dose” value (“percent decrease in writhing” below) in experiment [1] (setting [5]) is given as 49%.

Turning to `Cl.Fc1ccc2c(CCCN3CCC(CCCc4ccccc4)CC3)noc2c1` [1-[3-(6-Fluoro-1,2-benzisoxazol-3-yl)propyl]-4-(3-phenylpropyl)piperidine hydrochloride], the inhibition in vivo at 10 mg/kg in experiment [2] (setting [4]) amounted to 25%. In addition, the “Blood Pressure Decrease (decrease in mean arterial blood pressure)” value (shortened to “Blood Pressure Decrease”) in experiment [3] came to 40 mm/mercury.

Consider `Cl.O=C(c1ccc(F)cc1)C1CCN(CCCc2noc3cc(F)ccc23)CC1` [1-[3-(6-Fluoro-1,2-benzisoxazol-3-yl)propyl]-4-(4-fluorobenzoyl)piperidine hydrochloride], for which the ED50 in experiment [1] (sc, mice, subcutaneous) was determined as 0.8 mg/kg. Besides, the inhibition in vivo at 3 mg/kg in experiment [2] (mice, 3 mg/kg of body wt, intraperitoneal, 30 minutes prior to apomorphine 1.5 mg/kg s.c., read-out: Antipsychotic Activity (% decrease in climbing score)) amounted to 91%.

`Cl.Fc1ccc2c(CCCN3CCC(Oc4ccc(C(F)(F)F)cc4)CC3)noc2c1` [1-[3-(6-Fluoro-1,2-benzisoxazol-3-yl)propyl]-4-(4-trifluoromethylphenoxy)piperidine hydrochloride]: the “Blood Pressure Decrease” value in experiment [3] came out at 35 mm/mercury.

Turning to `OC1CCN(CCCc2noc3cc(F)ccc23)CC1` [1-[3-(6-Fluoro-1,2-benzisoxazol-3-yl)propyl]-4-hydroxypiperidine], the “percent decrease in writhing” value in experiment [1] (setting [5]) was 43%. The 50% effective dose (ED50) in experiment [2] (setting [6]) is 10.4 mg/kg.

As for `Cl.Fc1ccc2c(CCCN3CCC(c4ccccc4)CC3)noc2c1` [1-[3-(6-Fluoro-1,2-benzisoxazol-3-yl)propyl]-4-phenylpiperidine hydrochloride], the ED50 in experiment [1] (sc, mice, subcutaneous) came out at 1 mg/kg. The inhibition in vivo at 10 mg/kg in experiment [2] (setting [4]) stood at 35%.

Take `Cl.Fc1ccc2c(CCCN3CCC(Sc4ccccc4)CC3)noc2c1` [1-[3-(6-Fluoro-1,2-benzisoxazol-3-yl)propyl]-4-phenylthiopiperidine hydrochloride]: the median effective dose (ED50) in experiment [1] (sc, mice, subcutaneous) came out at 4.4 mg/kg. Further, the inhibition in vivo at 10 mg/kg in experiment [2] (setting [4]) was determined as 27%.

As for `Fc1ccc2c(CCCN3CCOCC3)noc2c1` [1-[3-(6-Fluoro-1,2-benzisoxazol-3-yl)propyl]morpholine oxalate], the ED50 in experiment [1] (sc, mice, subcutaneous) turned out to be 2.2 mg/kg.

Consider `Cl.Fc1ccc2c(CCCN3CCCCC3)noc2c1` [1-[3-(6-Fluoro-1,2-benzisoxazol-3-yl)propyl]piperidine hydrochloride], for which, in experiment [1] (sc, mice, subcutaneous), the 50% effective dose (ED50) was 0.6 mg/kg. Also, the “Blood Pressure Decrease” value in experiment [3] is 30 mm/mercury.

As for `Fc1ccc2c(CCCN3CCCC3)noc2c1.O=C(O)C(=O)O` [1-[3-(6-Fluoro-1,2-benzisoxazol-3-yl)propyl]pyrrolidine oxalate], in experiment [1] (sc, mice, subcutaneous), the ED50 came out at 1.2 mg/kg.

With `Fc1ccc2c(CCCN3CCc4ccccc4C3)noc2c1` [2-[3-(6-Fluoro-1,2-benzisoxazol-3-yl)propyl]-1,2,3,4-tetrahydroisoquinolinehydrochloride], the “percent decrease in writhing” value in experiment [1] (setting [5]) came out at 69%.

In the case of `Fc1ccc2c(CCCN3CCC(Oc4ccc(Cl)cc4)CC3)noc2c1` [4-(4-Chlorophenoxy)-1-[3-(6-fluoro-1,2-benzisoxazol-3-yl)propyl]-piperidinehydrochloride], in experiment [3], the “Blood Pressure Decrease” value is 39 mm/mercury.

Regarding `CC(=O)C1(c2ccccc2)CCN(CCCc2noc3cc(F)ccc23)CC1.Cl` [4-Acetyl-1-[3-(6-fluoro-1,2-benzisoxazol-3-yl)propyl]-4-phenylpiperidine hydrochloride], the “percent decrease in writhing” value in experiment [1] (mouse, in vivo, sc, 20 mg/kg) is 46%.

Take `O=C(NC1CCN(CCCc2noc3cc(F)ccc23)CC1)c1ccccc1` [4-Benzamido-1-[3-(6-fluoro-1,2-benzisoxazol-3-yl)propyl]-piperidine]: in experiment [1] (sc, mice, subcutaneous), the ED50 came to 0.6 mg/kg. Further, the inhibition in vivo at 10 mg/kg in experiment [2] (setting [4]) worked out at 49%. Besides, the “Blood Pressure Decrease” value in experiment [3] came to 44 mm/mercury.

Turning to `Cl.Fc1ccc2c(CCCN3CCC(Cc4ccccc4)CC3)noc2c1` [4-Benzyl-1-[3-(6-fluoro-1,2-benzisoxazol-3-yl)propyl]piperidine hydrochloride], in experiment [2] (setting [4]), the inhibition in vivo at 10 mg/kg came to 29%. In experiment [3], the “Blood Pressure Decrease” value was 71 mm/mercury.

Regarding `CC1CCN(CCCc2noc3cc(F)ccc23)CC1.Cl` [4-Methyl-1-[3-(6-fluoro-1,2-benzisoxazol-3-yl)propyl]piperidine hydrochloride], the median effective dose (ED50) in experiment [2] (setting [6]) was 7.6 mg/kg. For the same compound, in experiment [3], the “Blood Pressure Decrease” value came to 59 mm/mercury.

Regarding `Fc1ccc2c(CCCNN3CCCCC3)noc2c1` [6-Fluoro-3-{3-[N-(1-piperidino)aminopropyl}-1,2-benzisoxazole oxalate], in experiment [1] (sc, mice, subcutaneous), the ED50 was found to be 5 mg/kg. Moreover, the inhibition in vivo at 10 mg/kg in experiment [2] (setting [4]) came out at 36%.

On to `Cl.Fc1ccc2c(CCCN3CCC4(CC3)OCCO4)noc2c1` [8-[3-(6-Fluoro-1,2-benzisoxazol-3-yl)propyl]-1,4-dioxa-8-azaspiro[4,5]decane hydrochloride], for which the median effective dose (ED50) in experiment [1] (sc, mice, subcutaneous) was 1.4 mg/kg; in experiment [2] (setting [6]) it was 6.4 mg/kg.

Turning to `N=C(N)NCCN1CCCCCCC1` [guanethidine, reference compound], in experiment [3], the “Blood Pressure Decrease” value turned out to be 20 mm/mercury.

`O=C(CCCN1CCC(O)(c2ccc(Cl)cc2)CC1)c1ccc(F)cc1` [haloperidol, reference compound]: the median effective dose (ED50) in experiment [2] is 0.11 mg/kg.

In the case of `CC(C)=CCN1CCC2(C)c3cc(O)ccc3CC1C2C` (centres unmarked) [pentazocine, reference compound], the ED50 in experiment [1] (sc) amounted to 1.3 mg/kg.

Take `CCC(=O)O[C@](Cc1ccccc1)(c1ccccc1)[C@H](C)CN(C)C` [propoxyphene, reference compound]: in experiment [1] (sc), the ED50 came out at 3.9 mg/kg.

As for `CSc1ccc2c(c1)N(CCC1CCCCN1C)c1ccccc1S2` (centres unmarked) [thioridazine, reference compound], in experiment [2] (setting [6]), the median effective dose (ED50) was 3.5 mg/kg.

As a reminder, the ED50 is the midpoint of the dose-response relation.

The record behind these values is patent publication US4591586A, “6-fluoro-3-[3-(1-heterocyclo)propyl]-1,2-benzisoxazoles for treatment of pain, hypertension and psychoses” (Hoechst-Roussel Pharmaceuticals, priority 1984, dated 1986).
